Experimental data as given in patent US20240140986A1, “SYNTHETIC URSOLIC ACID DERIVATIVES AND METHODS OF USE THEREOF” (REATA PHARMACEUTICALS, INC., priority 2021, published 2024).
Read-outs that look alike come from different tables or passages of the source.

Legend:
[1] = system: IFNγ-induced NO production in RAW 264.7 cells; experiment: Nitric Oxide Suppression Assay (IFNγ-induced NO, Griess nitrite readout); assay type: cell-based, mouse; details: for IC50: Mus musculus; for Avg NO IC50 Relative to RTA402 (fold): Table 2, ratio to RTA402
How it was run: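 RAW 264.7 mouse macrophages in RPMI 1640 with 0.5% FBS were pretreated 2 h with compound (0.1% DMSO final), then stimulated with 20 ng/mL IFNγ for 24 h at 37° C. Supernatant nitrite was read by Griess absorbance at 525 nm against a nitrite standard curve, normalized to DMSO-IFNγ wells; IC50 from curve fit. Viability by WST-1.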

[2] = system: Nrf2 / ARE-dependent luciferase in AREc32 reporter cell line; experiment: AREc32 luciferase reporter activation (Nrf2 induction); assay type: cell-based, human; details: for EC (2-fold): Homo sapiens, Arec32; for Relative Avg AREc32 EC2X Relative to RTA402 (fold): ratio to RTA402
How it was run: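 EC2X is the concentration raising luminescence 2-fold above DMSO-treated cells, from a nonlinear-regression dose–response fit. Compounds (0.03–1000 nM) were applied for nineteen hours, starting one day after seeding 20,000 reporter cells per well. Luciferase was read with One-Glo reagent.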

[3] = RAW264.7, Table 3, oleanolic acid derivative analogs, read-out: Avg NO IC50
[4] = Table 3, oleanolic acid derivative analogs, read-out: Avg ARE EC-2X
[5] = RAW264.7, Table 2, RAW 264.7 cells, 2 h pretreatment, 20 ng/mL interferon gamma 24 h, read-out: Avg NO IC50 (nM) (Mean ± SD)
[6] = Table 2, concentration increasing luminescence 2-fold above vehicle, 19 h treatment, read-out: Avg AREc32 EC2X (nM) (Mean ± SD)
[7] = RAW264.7, Table 3, ursolic acid derivatives, read-out: Avg NO IC50 (nM) (Mean ± SD)
[8] = Table 3, ursolic acid derivatives, read-out: Avg ARE EC-2X (nM) (Mean ± SD)

Row | IC50 [1, 3] [nM] | IC50 [1, 5] [nM] | Avg NO IC50 Relative to RTA402 (fold) [1] [fold] | IC50 [1, 7] [nM] | SMILES | EC (2-fold) [2, 4] [nM] | EC (2-fold) [2, 6] [nM] | Relative Avg AREc32 EC2X Relative to RTA402 (fold) ([2]; Table 2) | EC (2-fold) [2, 8] [nM]
1 |  | 4.21 ± 1.75 | 1.47 ± 0.32 |  | C[C@@H]1[C@H]2[C@H]3C(=O)C=C4[C@@]5(C)C=C(C#N)C(=O)C(C)(C)[C@@H]5CC[C@@]4(C)[C@]3(C)CC[C@@]2(CNC(=O)C(C)(F)F)CC[C@H]1C [Compound T29] |  | 3.88 ± 1.19 | 0.317 ± 0.086 | 
2 |  | 11.5 ± 2.6 | 3.77 ± 0.33 | 11.5 ± 2.6 | Cc1cn(C[C@]23CC[C@@H](C)[C@H](C)[C@H]2[C@H]2C(=O)C=C4[C@@]5(C)C=C(C#N)C(=O)C(C)(C)[C@@H]5CC[C@@]4(C)[C@]2(C)CC3)nn1 [Compound T49] |  | 7.97 ± 0.73 | 0.643 ± 0.116 | 7.97 ± 0.73
3 |  | 25.5 ± 4.1 | 7.42 ± 3.56 |  | CCNC(=O)N[C@]12CC[C@@H](C)[C@H](C)[C@H]1[C@H]1C(=O)C=C3[C@@]4(C)C=C(C#N)C(=O)C(C)(C)[C@@H]4CC[C@@]3(C)[C@]1(C)CC2 [Compound T65] |  | 12.9 ± 2 | 1.14 ± 0.20 | 
4 | 5.3 |  |  |  | CCc1noc([C@]23CCC(C)(C)C[C@H]2[C@H]2C(=O)C=C4[C@@]5(C)C=C(C#N)C(=O)C(C)(C)[C@@H]5CC[C@@]4(C)[C@]2(C)CC3)n1 [CC4, reference compound] | 21.4 |  |  | 
5 |  | 14.8 ± 2.8 | 9.13 ± 1.38 |  | COC(=O)CC[C@]12CC[C@@H](C)[C@H](C)[C@H]1[C@H]1C(=O)C=C3[C@@]4(C)C=C(C#N)C(=O)C(C)(C)[C@@H]4CC[C@@]3(C)[C@]1(C)CC2 [Compound T76] |  | 8.7 ± 0.63 | 1.1 ± 0.3 | 
6 |  | 6.75 ± 2.19 | 3.29 ± 0.81 |  | C[C@H]1[C@H](C)CCC23CC[C@@]4(C)[C@]5(C)CC[C@H]6C(C)(C)C(=O)C(C#N)=C[C@]6(C)C5=CC(=O)[C@]4(OC2)[C@H]13 [Compound T12] |  | 9.2 ± 2.7 | 0.724 ± 0.074 | 
7 |  | 14.6 ± 2.2 | 8.03 ± 3.23 |  | C[C@@H]1[C@H]2[C@H]3C(=O)C=C4[C@@]5(C)C=C(C#N)C(=O)C(C)(C)[C@@H]5CC[C@@]4(C)[C@]3(C)CC[C@@]2(CC(=O)O)CC[C@H]1C [Compound T89] |  | 3.62 ± 1.73 | 0.345 ± 0.161 | 
8 |  | 2.79 ± 0.59 | 0.82 ± 0.08 |  | COC(=O)N1CCC(=O)N1C[C@]12CC[C@@H](C)[C@H](C)[C@H]1[C@H]1C(=O)C=C3[C@@]4(C)C=C(C#N)C(=O)C(C)(C)[C@@H]4CC[C@@]3(C)[C@]1(C)CC2 [Compound T53] |  | 1.74 ± 0.47 | 0.173 ± 0.054 | 
9 |  | 3.76 ± 1.35 | 2.53 ± 0.74 |  | Cc1noc([C@]23CC[C@@H](C)[C@H](C)[C@H]2[C@H]2C(=O)C=C4[C@@]5(C)C=C(C#N)C(=O)C(C)(C)[C@@H]5CC[C@@]4(C)[C@]2(C)CC3)n1 [Compound T1] |  | 8.44 ± 1.56 | 0.744 ± 0.121 | 
10 |  | 4.03 ± 1.66 | 1.15 ± 0.40 |  | C[C@@H]1[C@H]2[C@H]3C(=O)C=C4[C@@]5(C)C=C(C#N)C(=O)C(C)(C)[C@@H]5CC[C@@]4(C)[C@]3(C)CC[C@@]2(CNC(=O)N2CCC2)CC[C@H]1C [Compound T27] |  | 1.62 ± 0.22 | 0.144 ± 0.008 | 
11 |  | 26 ± 7.6 | 10.9 ± 1.6 | 26 ± 7.6 | C[C@@H]1[C@H]2[C@H]3C(=O)C=C4[C@@]5(C)C=C(C#N)C(=O)C(C)(C)[C@@H]5CC[C@@]4(C)[C@]3(C)CC[C@@]2(CN)CC[C@H]1C [Compound T21] |  | 14.7 ± 1.3 | 1.27 ± 0.045 | 14.7 ± 1.3
12 |  | 2.31 ± 0.55 | 0.92 ± 0.27 |  | C[C@@H]1[C@H]2[C@H]3C(=O)C=C4[C@@]5(C)C=C(C#N)C(=O)C(C)(C)[C@@H]5CC[C@@]4(C)[C@]3(C)CC[C@@]2(CCC(=O)NC2CC2)CC[C@H]1C [Compound T81] |  | 3.1 ± 1.5 | 0.238 ± 0.072 | 
13 |  | 26 ± 8.8 | 8.67 ± 3.30 | 26 ± 8.8 | C[C@@H]1[C@H]2[C@H]3C(=O)C=C4[C@@]5(C)C=C(C#N)C(=O)C(C)(C)[C@@H]5CC[C@@]4(C)[C@]3(C)CC[C@@]2(N2CCCC2=O)CC[C@H]1C [Compound T58] |  | 33.6 ± 3.3 | 2.64 ± 0.47 | 33.6 ± 3.3
14 |  | 26.1 ± 7.6 | 6.55 ± 2.23 |  | C[C@@H]1[C@H]2[C@H]3C(=O)C=C4[C@@]5(C)C=C(C#N)C(=O)C(C)(C)[C@@H]5CC[C@@]4(C)[C@]3(C)CC[C@@]2(C(=O)NCC(F)F)CC[C@H]1C [Compound T87] |  | 23.6 ± 0.9 | 2.0 ± 0.1 | 
15 | 4.3 |  |  |  | CC1(C)CC[C@]2(N3CCC3=O)CC[C@]3(C)[C@H](C(=O)C=C4[C@@]5(C)C=C(C#N)C(=O)C(C)(C)[C@@H]5CC[C@]43C)[C@@H]2C1 [CC74, reference compound] | 36.1 |  |  | 
16 | 1.2 |  |  |  | CC1(C)CC[C@]2(Cn3cncn3)CC[C@]3(C)[C@H](C(=O)C=C4[C@@]5(C)C=C(C#N)C(=O)C(C)(C)[C@@H]5CC[C@]43C)[C@@H]2C1 [CC47, reference compound] | 10.7 |  |  | 
17 |  | 108 ± 19 | 36.5 ± 16.9 |  | C[C@@H]1[C@H]2[C@H]3[C@H]4C[C@@H]5[C@@]6(C)C=C(C#N)C(=O)C(C)(C)[C@@H]6CC[C@@]5(C)[C@]3(C)CC[C@]2(CC[C@H]1C)C(=O)O4 [Compound T102] |  | 338 ± 11 | 31.2 ± 5.3 | 
18 |  | 11 ± 3 | 4.64 ± 0.70 |  | COC(=O)N[C@]12CC[C@@H](C)[C@H](C)[C@H]1[C@H]1C(=O)C=C3[C@@]4(C)C=C(C#N)C(=O)C(C)(C)[C@@H]4CC[C@@]3(C)[C@]1(C)CC2 [Compound T66] |  | 9.91 ± 0.25 | 0.857 ± 0.057 | 
19 | 3.8 |  |  |  | Cc1nc([C@]23CCC(C)(C)C[C@H]2[C@H]2C(=O)C=C4[C@@]5(C)C=C(C#N)C(=O)C(C)(C)[C@@H]5CC[C@@]4(C)[C@]2(C)CC3)no1 [CC82, reference compound] | 22.1 |  |  | 
20 |  | 12.9 ± 4.6 | 3.72 ± 0.60 | 12.9 ± 4.6 | C[C@@H]1[C@H]2[C@H]3C(=O)C=C4[C@@]5(C)C=C(C#N)C(=O)C(C)(C)[C@@H]5CC[C@@]4(C)[C@]3(C)CC[C@@]2(CNC(=O)OC(C)(C)C)CC[C@H]1C [Compound T20] |  | 21.5 ± 4.6 | 1.83 ± 0.41 | 21.5 ± 4.6
21 |  | 8.75 ± 4.81 | 2.31 ± 0.20 |  | C[C@@H]1[C@H]2[C@H]3C(=O)C=C4[C@@]5(C)C=C(C#N)C(=O)C(C)(C)[C@@H]5CC[C@@]4(C)[C@]3(C)CC[C@@]2(CCC(=O)O)CC[C@H]1C [Compound T77] |  | 3.16 ± 1.11 | 0.263 ± 0.085 | 
22 | 0.5 |  |  |  | CNC(=O)NC[C@]12CCC(C)(C)C[C@H]1[C@H]1C(=O)C=C3[C@@]4(C)C=C(C#N)C(=O)C(C)(C)[C@@H]4CC[C@@]3(C)[C@]1(C)CC2 [CC26, reference compound] | 2.75 |  |  | 
23 | 0.4 |  |  |  | CCC(=O)NC[C@]12CCC(C)(C)C[C@H]1[C@H]1C(=O)C=C3[C@@]4(C)C=C(C#N)C(=O)C(C)(C)[C@@H]4CC[C@@]3(C)[C@]1(C)CC2 [CC23, reference compound] | 2.37 |  |  | 
24 | 3.2 |  |  |  | CC1(C)CC[C@]2(CN)CC[C@]3(C)[C@H](C(=O)C=C4[C@@]5(C)C=C(C#N)C(=O)C(C)(C)[C@@H]5CC[C@]43C)[C@@H]2C1 [CC21, reference compound] | 15.8 |  |  | 

Row | SMILES | IC50 [1, 3] [nM] | IC50 [1, 5] [nM] | Avg NO IC50 Relative to RTA402 (fold) [1] [fold] | IC50 [1, 7] [nM] | EC (2-fold) [2, 4] [nM] | EC (2-fold) [2, 6] [nM] | Relative Avg AREc32 EC2X Relative to RTA402 (fold) ([2]; Table 2) | EC (2-fold) [2, 8] [nM]
25 | CC1(C)CC[C@]2(c3nc(CO)no3)CC[C@]3(C)[C@H](C(=O)C=C4[C@@]5(C)C=C(C#N)C(=O)C(C)(C)[C@@H]5CC[C@]43C)[C@@H]2C1 [CC10, reference compound] | 2.1 |  |  |  | 3.39 |  |  | 
26 | CC1(C)CC[C@]2(CNCCO)CC[C@]3(C)[C@H](C(=O)C=C4[C@@]5(C)C=C(C#N)C(=O)C(C)(C)[C@@H]5CC[C@]43C)[C@@H]2C1 [CC40, reference compound] | 7.5 |  |  |  | 21.8 |  |  | 
